Results: ChEMBL document CHEMBL1201862, “PubChem BioAssay data set” (2004)
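Values below derive from 48-hour exposures of cells grown in 96-well plates, with endpoints linearly interpolated between the two concentrations bracketing the appropriate inhibition level. GI50 marks 50% less growth.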 The source made the active and inactive calls. Rule as the data show it: active = GI50 up to about 1.1 µM and inactive = higher.

Experiments:
Assay in all cases: inhibition of tumour cell growth, NCI panel, 48 h
ACHN = tested on: ACHN
PC-3 = tested on: PC-3
NCI-H460 = tested on: NCI-H460
M14 = tested on: M14
CAKI-1 = tested on: CAKI-1
MDA-MB-435 = tested on: MDA-MB-435
RXF 393 = tested on: RXF 393
A498 = tested on: A498
SR = tested on: SR
KM12 = tested on: KM12
COLO 205 = tested on: COLO 205
OVCAR-4 = tested on: OVCAR-4
SK-MEL-2 = tested on: SK-MEL-2
NCI/ADR-RES = tested on: NCI/ADR-RES
786-0 = tested on: 786-0
OVCAR-3 = tested on: OVCAR-3
SNB-75 = tested on: SNB-75
SK-MEL-28 = tested on: SK-MEL-28
MDA-MB-231 = tested on: MDA-MB-231
IGROV-1 = tested on: IGROV-1

Compound | GI50 (ACHN) | GI50 (PC-3) | GI50 (NCI-H460) | GI50 (M14) | GI50 (CAKI-1) | GI50 (MDA-MB-435) | GI50 (RXF 393) | GI50 (A498) | GI50 (SR) | GI50 (KM12) | GI50 (COLO 205) | GI50 (OVCAR-4) | GI50 (SK-MEL-2) | GI50 (NCI/ADR-RES) | GI50 (786-0) | GI50 (OVCAR-3) | GI50 (SNB-75) | GI50 (SK-MEL-28) | GI50 (MDA-MB-231) | GI50 (IGROV-1)
Cc1ccc(C(=N)Nc2ccccc2)cc1 | > 100 µM (inactive) | > 100 µM (inactive) | > 100 µM (inactive) | > 100 µM (inactive) | > 100 µM (inactive) | > 100 µM (inactive) | > 100 µM (inactive) | > 100 µM (inactive) | > 100 µM (inactive) | > 100 µM (inactive) | 20.9 µM (inactive) | > 100 µM (inactive) | > 100 µM (inactive) | > 100 µM (inactive) | > 100 µM (inactive) | > 100 µM (inactive) | > 100 µM (inactive) | > 100 µM (inactive) | > 100 µM (inactive) | > 100 µM (inactive)
O=S(=O)(O)c1cc(S(=O)(=O)O)c2c(/N=N/c3ccc(/N=N/c4ccccc4)cc3)c(O)ccc2c1 | > 100 µM (inactive) | > 100 µM (inactive) | > 100 µM (inactive) | > 100 µM (inactive) | > 100 µM (inactive) | > 100 µM (inactive) | > 100 µM (inactive) | 52.1 µM (inactive) | > 100 µM (inactive) | > 100 µM (inactive) | > 100 µM (inactive) | > 100 µM (inactive) | > 100 µM (inactive) | > 100 µM (inactive) | > 100 µM (inactive) | > 100 µM (inactive) | > 100 µM (inactive) | > 100 µM (inactive) | > 100 µM (inactive) | > 100 µM (inactive)
COc1cccc(C2SC(=N)Nc3c2c(C)nn3C(=O)c2ccccc2O)c1 (stereo not given) | 1.77 µM (inactive) | > 10 µM (inactive) | 3.22 µM (inactive) | > 5.47 µM (inactive) | > 10 µM (inactive) | 1.76 µM (inactive) | 2.14 µM (inactive) | 7.78 µM (inactive) | > 3.21 µM (inactive) | > 2.79 µM (inactive) | > 6.4 µM (inactive) | > 2.88 µM (inactive) | > 7.23 µM (inactive) | > 3.78 µM (inactive) | > 3.79 µM (inactive) | > 3.65 µM (inactive) | 0.925 µM (active) | > 10 µM (inactive) | > 4.62 µM (inactive) | > 2.11 µM (inactive)
N=C(N)NCC1CCCCCCN1 (stereo not given) | > 100 µM (inactive) | > 100 µM (inactive) | > 100 µM (inactive) | > 100 µM (inactive) | > 100 µM (inactive) | > 100 µM (inactive) | > 100 µM (inactive) | > 100 µM (inactive) | > 100 µM (inactive) | > 100 µM (inactive) | > 100 µM (inactive) | > 100 µM (inactive) | > 100 µM (inactive) | > 100 µM (inactive) | > 100 µM (inactive) | > 100 µM (inactive) | > 100 µM (inactive) | > 100 µM (inactive) | > 100 µM (inactive) | > 100 µM (inactive)
CCCCCCCCCCCC[S+](C)C | 4.56 µM (inactive) | 1.58 µM (inactive) | 9.4 µM (inactive) | 5.14 µM (inactive) | 1.57 µM (inactive) | 3.36 µM (inactive) | 2.07 µM (inactive) | 10.7 µM (inactive) | 8.69 µM (inactive) | 3.36 µM (inactive) | 1.29 µM (inactive) | 6.07 µM (inactive) | 5.02 µM (inactive) | > 44.1 µM (inactive) | 1.69 µM (inactive) | 5.38 µM (inactive) | 5.68 µM (inactive) | 10.5 µM (inactive) | 0.0124 µM (active) | 2 µM (inactive)
CN(C)c1cccc(NC2=NCCO2)c1 | 90.4 µM (inactive) | 31 µM (inactive) | 32.4 µM (inactive) | 37.5 µM (inactive) | > 100 µM (inactive) | 19.8 µM (inactive) | > 100 µM (inactive) | 74.5 µM (inactive) | 30.3 µM (inactive) | 40.5 µM (inactive) | 20.6 µM (inactive) | > 100 µM (inactive) | 14.9 µM (inactive) | 39.7 µM (inactive) | 46.6 µM (inactive) | 59.4 µM (inactive) | 41.2 µM (inactive) | 42.8 µM (inactive) | 51.4 µM (inactive) | > 100 µM (inactive)
CC1(O)CC(=O)c2c(cc3ccc(-c4c5c(c(O)c6c(O)cccc46)C(=O)CC(C)(O)C5)c(O)c3c2O)C1 (stereo not given) | 0.125 µM (active) | 0.0834 µM (active) | 0.16 µM (active) | 0.406 µM (active) | 0.401 µM (active) | 0.279 µM (active) | < 0.01 µM (active) | 0.465 µM (active) | 0.367 µM (active) | 0.0278 µM (active) | 0.0442 µM (active) | 0.27 µM (active) | 0.271 µM (active) | 0.441 µM (active) | 0.435 µM (active) | 0.0953 µM (active) | 0.129 µM (active) | 0.326 µM (active) | 0.311 µM (active) | 0.348 µM (active)
O=S(=O)(O)c1ccc(/N=N/c2c(O)ccc3ccccc23)cc1 | > 100 µM (inactive) | > 100 µM (inactive) | > 100 µM (inactive) | > 100 µM (inactive) | > 100 µM (inactive) | > 100 µM (inactive) | > 100 µM (inactive) | > 100 µM (inactive) | > 100 µM (inactive) | > 100 µM (inactive) | > 100 µM (inactive) | > 100 µM (inactive) | > 100 µM (inactive) | > 100 µM (inactive) | > 100 µM (inactive) | > 100 µM (inactive) | > 100 µM (inactive) | > 100 µM (inactive) | > 100 µM (inactive) | > 100 µM (inactive)
N=C(N)NC(CC(=O)O)c1ccccc1 (stereo not given) | > 100 µM (inactive) | > 100 µM (inactive) | > 100 µM (inactive) | > 100 µM (inactive) | > 100 µM (inactive) | > 100 µM (inactive) | > 100 µM (inactive) | > 100 µM (inactive) | > 100 µM (inactive) | > 100 µM (inactive) | > 100 µM (inactive) | > 100 µM (inactive) | > 100 µM (inactive) | > 100 µM (inactive) | > 100 µM (inactive) | > 100 µM (inactive) | > 100 µM (inactive) | > 100 µM (inactive) | > 100 µM (inactive) | > 100 µM (inactive)
CCc1nc(N)nc(N)c1-c1ccc(Cl)c(/N=N/N(C)C)c1 | 28.6 µM (inactive) | 24.5 µM (inactive) | 6.59 µM (inactive) | 22.5 µM (inactive) | 36.1 µM (inactive) | 27.9 µM (inactive) | 41.4 µM (inactive) | 52 µM (inactive) | 19.1 µM (inactive) | 28.4 µM (inactive) | 24.1 µM (inactive) | 25.1 µM (inactive) | 32.2 µM (inactive) | 23.8 µM (inactive) | 35 µM (inactive) | 37.6 µM (inactive) | 61 µM (inactive) | 29.1 µM (inactive) | 48.8 µM (inactive) | 24.1 µM (inactive)
